Data as given in US4698352A, “4-oxo-1,4-dihydronicotinic acid derivatives, salts thereof, and antibacterial agents containing the same” (Toyama Chemical Co., Ltd., priority 1982, dated 1987).
Converted amounts (≈) assume the structure as drawn. Read-outs that look alike come from different tables or passages of the source.

Columns and labels:
Experiment in all cases: Antibacterial activity (MIC), agar dilution
Assay type in all cases: cell-based
[1] = test system: Ps. aeruginosa GN918**; settings: Pseudomonas aeruginosa, Ps. aeruginosa GN918, cephalospolinase-producing, 10^6 cells per ml
Source text: (§1) The amount of bacteria inoculated was 10^4 cells per plate (10^6 cells per ml).
(§2) ** Cephalospolinase-producing bacteria

[2] = test system: E. coli GN5482**; settings: Escherichia coli, 20 h; E. coli GN5482, cephalospolinase-producing; 10^6 cells per ml; read-out: MIC
Source text: as §1, §2

[3] = test system: Pro. vulgaris GN76**; settings: Proteus vulgaris
Source text: as §1, §2

[4] = test system: Kl. pneumoniae Y-50; settings: Klebsiella pneumoniae, Y50, 20 h, 10^6 cells per ml, 37° C., read-out: MIC
Source text: as §1

[5] = test system: Aci. antitratus A-6; settings: 20 h
Source text: as §1

[6] = test system: Ent. cloacae IID977; settings: Enterobacter cloacae, IID977, 20 h
Source text: as §1

[7] = test system: Pro. vulgaris GN3027; settings: Proteus vulgaris, GN3027, 20 h, Pro. vulgaris GN3027; 10^6 cells per ml; 37° C., 20 hours; read-out: MIC
Source text: as §1

[8] = test system: E. coli NIHJ JC-2; settings: Escherichia coli, NIHJJC2, 20 h
Source text: as §1

[9] = test system: Kl. pneumoniae Y-41; settings: Klebsiella pneumoniae, Y41, 10^6 cells per ml, 37° C., 20 hours, read-out: MIC
Source text: as §1

[10] = test system: Ps. aeruginosa IFO3445; settings: Pseudomonas aeruginosa
Source text: as §1

[11] = test system: E. coli TK-111; settings: Escherichia coli, TK111, 20 h, E. coli TK-111; 10^6 cells per ml; 37° C., 20 hours; read-out: MIC
Source text: as §1

[12] = test system: Pro. mirabilis T-111; settings: Proteus mirabilis, 37° C.
Source text: as §1

[13] = test system: Pro. morganii T-216; settings: Morganella morganii, 37° C.
Source text: as §1

[14] = test system: Ps. aeruginosa S-68; settings: Pseudomonas aeruginosa
Source text: as §1

[15] = test system: St. aureus FDA209P; settings: Staphylococcus aureus, FDA209P, 20 h
Source text: as §1

[16] = test system: Kl. pneumoniae Y-4*; settings: Klebsiella pneumoniae, 20 h, Kl. pneumoniae Y-4, penicillinase-producing; 10^6 cells per ml; read-out: MIC
Source text: as §1
(§3) * Penicillinase-producing bacteria

[17] = test system: St. aureus F-137*; settings: Staphylococcus aureus, 20 h
Source text: as §1, §3

[18] = test system: E. coli TK-3*; settings: Escherichia coli, 20 h, E. coli TK-3, penicillinase-producing; 10^6 cells per ml; read-out: MIC
Source text: as §1, §3

[19] = test system: Ps. aeruginosa GN3379*; settings: Pseudomonas aeruginosa, Ps. aeruginosa GN3379, penicillinase-producing, 10^6 cells per ml
Source text: as §1, §3

[20] = 20 h, Pro. vulgaris GN76, cephalospolinase-producing, 10^6 cells per ml, read-out: MIC
[21] = Aci. antitratus A-6, 10^6 cells per ml, 37° C., 20 hours, read-out: MIC
[22] = Ent. cloacae IID977, 10^6 cells per ml, 37° C., 20 hours, read-out: MIC
[23] = E. coli NIHJ JC-2, 10^6 cells per ml, 37° C., 20 hours, read-out: MIC
[24] = Ps. aeruginosa IFO3445, 10^6 cells per ml, 37° C., 20 hours, read-out: MIC
[25] = S68, Ps. aeruginosa S-68, 10^6 cells per ml, 37° C., 20 hours, read-out: MIC
[26] = St. aureus FDA209P, 10^6 cells per ml, 37° C., 20 hours, read-out: MIC
[27] = St. aureus F-137, penicillinase-producing, 10^6 cells per ml, read-out: MIC
[28] = T111, 10^6 cells per ml, 20 hours, read-out: MIC
[29] = T216, 10^6 cells per ml, 20 hours, read-out: MIC

SMILES | MIC ([1]; GN918, 20 h) | MIC [2] | MIC [3, 20] | MIC [4] | MIC [5, 21] | MIC [6, 22] | MIC [7] | MIC [8, 23] | MIC [9] | MIC [10, 24] | MIC [11] | MIC ([12]; T111, 20 h, 10^6 cells per ml) | MIC [14, 25] | MIC [15, 26] | MIC [16] | MIC [17, 27] | MIC [18] | MIC ([19]; 20 h, read-out: MIC) | MIC ([10]; IFO3445, 20 h) | MIC [13, 29] | further results
Cc1cc(O)ccc1-n1cc(C(=O)O)c(=O)cc1-c1ccc2c(c1)NCCN2C | 3.13 mg/L (≈ 8 µM) | 0.1 mg/L (≈ 0.255 µM) | 1.56 mg/L (≈ 3.99 µM) | 0.39 mg/L (≈ 0.996 µM) | 1.56 mg/L (≈ 3.99 µM) | 1.56 mg/L (≈ 3.99 µM) | 0.78 mg/L (≈ 1.99 µM) | 0.39 mg/L (≈ 0.996 µM) | 3.13 mg/L (≈ 8 µM) | 25 mg/L (≈ 63.9 µM) | 0.2 mg/L (≈ 0.511 µM) | 3.13 mg/L (≈ 8 µM) | 12.5 mg/L (≈ 31.9 µM) | 0.78 mg/L (≈ 1.99 µM) | 6.25 mg/L (≈ 16 µM) | 0.78 mg/L (≈ 1.99 µM) | 0.78 mg/L (≈ 1.99 µM) | 25 mg/L (≈ 63.9 µM) |  |  | MIC ([13]; T216, 20 h, 10^6 cells per ml): 3.13 mg/L (≈ 8 µM)
O=C(O)c1cn(-c2ccc(O)cc2F)c(-c2cc3ccccc3s2)cc1=O |  | ≤ 0.05 mg/L | 0.2 mg/L (≈ 0.524 µM) | 0.2 mg/L (≈ 0.524 µM) | 0.1 mg/L (≈ 0.262 µM) | 0.39 mg/L (≈ 1.02 µM) | ≤ 0.05 mg/L | 0.2 mg/L (≈ 0.524 µM) | 1.56 mg/L (≈ 4.09 µM) |  | ≤ 0.05 mg/L |  |  | ≤ 0.05 mg/L | 1.56 mg/L (≈ 4.09 µM) | ≤ 0.05 mg/L | 0.39 mg/L (≈ 1.02 µM) |  | 1.56 mg/L (≈ 4.09 µM) | 0.78 mg/L (≈ 2.05 µM) | MIC ([1]; 20 h, read-out: MIC): 3.13 mg/L (≈ 8.21 µM); MIC [12, 28]: 0.78 mg/L (≈ 2.05 µM); MIC ([14]; S68, 20 h): 1.56 mg/L (≈ 4.09 µM); MIC ([19]; GN3379, 20 h): 1.56 mg/L (≈ 4.09 µM)
O=C(O)c1cn(-c2ccc(F)cc2)c(-c2ccc(Cl)cc2)cc1=O |  | 0.39 mg/L (≈ 1.13 µM) |  | 3.13 mg/L (≈ 9.11 µM) |  | 6.25 mg/L (≈ 18.2 µM) | 0.39 mg/L (≈ 1.13 µM) |  | 12.5 mg/L (≈ 36.4 µM) | > 100 mg/L | 1.56 mg/L (≈ 4.54 µM) | 12.5 mg/L (≈ 36.4 µM) | 50 mg/L (≈ 145 µM) | 6.25 mg/L (≈ 18.2 µM) | 25 mg/L (≈ 72.7 µM) | 6.25 mg/L (≈ 18.2 µM) | 6.25 mg/L (≈ 18.2 µM) | 50 mg/L (≈ 145 µM) |  | 6.25 mg/L (≈ 18.2 µM) | MIC ([1]; 20 h, read-out: MIC): 100 mg/L (≈ 291 µM); MIC ([3]; GN76, 20 h): 3.13 mg/L (≈ 9.11 µM); MIC [5]: 3.13 mg/L (≈ 9.11 µM); MIC [8]: 3.13 mg/L (≈ 9.11 µM)
Nc1ccc(-c2cc(=O)c(C(=O)O)cn2-c2ccc(F)cc2)cc1 | 3.13 mg/L (≈ 9.65 µM) | 0.2 mg/L (≈ 0.617 µM) | 0.78 mg/L (≈ 2.41 µM) | 0.39 mg/L (≈ 1.2 µM) |  | 1.56 mg/L (≈ 4.81 µM) | 0.2 mg/L (≈ 0.617 µM) | 0.78 mg/L (≈ 2.41 µM) | 3.13 mg/L (≈ 9.65 µM) | 6.15 mg/L (≈ 19 µM) | 0.39 mg/L (≈ 1.2 µM) | 6.25 mg/L (≈ 19.3 µM) | 12.5 mg/L (≈ 38.5 µM) |  | 6.25 mg/L (≈ 19.3 µM) |  | 0.78 mg/L (≈ 2.41 µM) | 25 mg/L (≈ 77.1 µM) |  | 1.56 mg/L (≈ 4.81 µM) | MIC [5]: 3.13 mg/L (≈ 9.65 µM); MIC [15]: 3.13 mg/L (≈ 9.65 µM); MIC [17]: 3.13 mg/L (≈ 9.65 µM)
O=C(O)c1cn(-c2ccc(O)cc2)c(-c2ccc(-c3ccccc3)s2)cc1=O | 1.56 mg/L (≈ 4.01 µM) | ≤ 0.05 mg/L | 0.39 mg/L (≈ 1 µM) | 0.78 mg/L (≈ 2 µM) | 0.2 mg/L (≈ 0.514 µM) |  | ≤ 0.05 mg/L | 0.39 mg/L (≈ 1 µM) | 3.13 mg/L (≈ 8.04 µM) |  | ≤ 0.05 mg/L |  |  | ≤ 0.05 mg/L | 1.56 mg/L (≈ 4.01 µM) | ≤ 0.05 mg/L | 0.78 mg/L (≈ 2 µM) |  | 3.13 mg/L (≈ 8.04 µM) | 0.78 mg/L (≈ 2 µM) | MIC [6]: 1.56 mg/L (≈ 4.01 µM); MIC [12, 28]: 0.78 mg/L (≈ 2 µM); MIC ([14]; S68, 20 h): 3.13 mg/L (≈ 8.04 µM); MIC ([19]; GN3379, 20 h): 3.13 mg/L (≈ 8.04 µM)
CC(=O)Oc1ccc(-n2cc(C(=O)O)c(=O)cc2-c2ccc(-c3cccs3)cc2)cc1 | 1.56 mg/L (≈ 3.62 µM) | ≤ 0.05 mg/L | 0.39 mg/L (≈ 0.904 µM) | 0.39 mg/L (≈ 0.904 µM) | ≤ 0.05 mg/L | 0.39 mg/L (≈ 0.904 µM) | ≤ 0.05 mg/L | 0.2 mg/L (≈ 0.464 µM) | 0.78 mg/L (≈ 1.81 µM) |  | ≤ 0.05 mg/L |  |  | ≤ 0.05 mg/L | 1.56 mg/L (≈ 3.62 µM) | ≤ 0.05 mg/L | 0.39 mg/L (≈ 0.904 µM) | 3.13 mg/L (≈ 7.25 µM) | 1.56 mg/L (≈ 3.62 µM) | 0.39 mg/L (≈ 0.904 µM) | MIC [12, 28]: 0.39 mg/L (≈ 0.904 µM); MIC ([14]; S68, 20 h): 1.56 mg/L (≈ 3.62 µM)
